Measured values published in ChEMBL document CHEMBL1145730, “Nodulisporic acid side-chain modifications: access to the 2", 3", 4", and 6" registers” (Bioorg Med Chem Lett, 2003).

test system: Pulicinae; assay: In vitro flea activity using a membrane feeding assay wherein adult fleas ingest drug-treated bovine blood; type: functional

SMILES | Activity [p.p.m.]
C=C(C)[C@H]1C(=O)c2c3c(cc4c5c(n1c24)[C@@]1(C)C(CC[C@H]2[C@](C)(/C=C/CC(C)=O)[C@@H](O)CC[C@@]21C)C5)C1=CC(C)(C)OC(C)(C)C1[C@@H]3O (stereo not given in full) | 1
C=C(C)[C@H]1C(=O)c2c3c(cc4c5c(n1c24)[C@@]1(C)C(CC[C@H]2[C@](C)(/C=C/CC(=O)NCc4ccco4)[C@@H](O)CC[C@@]21C)C5)C1=CC(C)(C)OC(C)(C)C1[C@@H]3O (stereo not given in full) | 10
C=C(C)[C@H]1C(=O)c2c3c(cc4c5c(n1c24)[C@@]1(C)C(CC[C@H]2[C@](C)(C/C=C/C(=O)NC4CC4)[C@@H](O)CC[C@@]21C)C5)C1=CC(C)(C)OC(C)(C)C1[C@@H]3O (stereo not given in full) | > 10
C=CCN(C)C(=O)/C=C/[C@]1(C)[C@@H](O)CC[C@@]2(C)[C@H]1CCC1Cc3c(n4c5c(c6c(cc35)C3=CC(C)(C)OC(C)(C)C3[C@@H]6O)C(=O)[C@@H]4C(=C)C)[C@@]12C (stereo not given in full) | > 10
C=C(C)[C@H]1C(=O)c2c3c(cc4c5c(n1c24)[C@@]1(C)C(CC[C@H]2[C@](C)(/C=C/CC(=O)N(C)C)[C@@H](O)CC[C@@]21C)C5)C1=CC(C)(C)OC(C)(C)C1[C@@H]3O (stereo not given in full) | 10
C=C(C)[C@H]1C(=O)c2c3c(cc4c5c(n1c24)[C@@]1(C)C(CC[C@H]2[C@](C)(C/C=C/C(=O)NCC)[C@@H](O)CC[C@@]21C)C5)C1=CC(C)(C)OC(C)(C)C1[C@@H]3O (stereo not given in full) | 10
C=C(C)[C@H]1C(=O)c2c3c(cc4c5c(n1c24)[C@@]1(C)C(CC[C@H]2[C@](C)(/C=C/C(=O)NC(C)(C)c4ccccn4)[C@@H](O)CC[C@@]21C)C5)C1=CC(C)(C)OC(C)(C)C1[C@@H]3O (stereo not given in full) | 1
C=C(C)[C@H]1C(=O)c2c3c(cc4c5c(n1c24)[C@@]1(C)C(CC[C@H]2[C@](C)(C/C=C/C(=O)OC)[C@@H](O)CC[C@@]21C)C5)C1=CC(C)(C)OC(C)(C)C1[C@@H]3O (stereo not given in full) | 10
C=C(C)[C@H]1C(=O)c2c3c(cc4c5c(n1c24)[C@@]1(C)C(CC[C@H]2[C@](C)(/C=C/C(=O)NCc4ccccc4)[C@@H](O)CC[C@@]21C)C5)C1=CC(C)(C)OC(C)(C)C1[C@@H]3O (stereo not given in full) | 10
C=C(C)[C@H]1C(=O)c2c3c(cc4c5c(n1c24)[C@@]1(C)C(CC[C@H]2[C@](C)(C/C=C/C(=O)N(C)C)[C@@H](O)CC[C@@]21C)C5)C1=CC(C)(C)OC(C)(C)C1[C@@H]3O (stereo not given in full) | 10
C=C(C)[C@H]1C(=O)c2c3c(cc4c5c(n1c24)[C@@]1(C)C(CC[C@H]2[C@](C)(/C=C/C(=O)NCCC)[C@@H](O)CC[C@@]21C)C5)C1=CC(C)(C)OC(C)(C)C1[C@@H]3O (stereo not given in full) | > 10
C=C(C)[C@H]1C(=O)c2c3c(cc4c5c(n1c24)[C@@]1(C)C(CC[C@H]2[C@](C)(/C=C/CC(=O)N4CCOCC4)[C@@H](O)CC[C@@]21C)C5)C1=CC(C)(C)OC(C)(C)C1[C@@H]3O (stereo not given in full) | 1
C=C(C)[C@H]1C(=O)c2c3c(cc4c5c(n1c24)[C@@]1(C)C(CC[C@H]2[C@](C)(/C=C/CC(=O)NCC)[C@@H](O)CC[C@@]21C)C5)C1=CC(C)(C)OC(C)(C)C1[C@@H]3O (stereo not given in full) | 10
C=C(C)[C@H]1C(=O)c2c3c(cc4c5c(n1c24)[C@@]1(C)C(CC[C@H]2[C@](C)(/C=C/CC=O)[C@@H](O)CC[C@@]21C)C5)C1=CC(C)(C)OC(C)(C)C1[C@@H]3O (stereo not given in full) | 10
C=C(C)[C@H]1C(=O)c2c3c(cc4c5c(n1c24)[C@@]1(C)C(CC[C@H]2[C@](C)(/C=C/C(=O)N(C)C)[C@@H](O)CC[C@@]21C)C5)C1=CC(C)(C)OC(C)(C)C1[C@@H]3O (stereo not given in full) | > 10
C=C(C)[C@H]1C(=O)c2c3c(cc4c5c(n1c24)[C@@]1(C)C(CC[C@H]2[C@](C)(/C=C/CC(=O)NCc4ccccc4)[C@@H](O)CC[C@@]21C)C5)C1=CC(C)(C)OC(C)(C)C1[C@@H]3O (stereo not given in full) | 10
C=C(C)[C@H]1C(=O)c2c3c(cc4c5c(n1c24)[C@@]1(C)C(CC[C@H]2[C@](C)(/C=C/CC(=O)OC)[C@@H](O)CC[C@@]21C)C5)C1=CC(C)(C)OC(C)(C)C1[C@@H]3O (stereo not given in full) | 1
C=C(C)[C@H]1C(=O)c2c3c(cc4c5c(n1c24)[C@@]1(C)C(CC[C@H]2[C@](C)(/C=C/C(=O)NC)[C@@H](O)CC[C@@]21C)C5)C1=CC(C)(C)OC(C)(C)C1[C@@H]3O (stereo not given in full) | 10
C=C(C)[C@H]1C(=O)c2c3c(cc4c5c(n1c24)[C@@]1(C)C(CC[C@H]2[C@](C)(/C=C/CC(=O)NC4CC4)[C@@H](O)CC[C@@]21C)C5)C1=CC(C)(C)OC(C)(C)C1[C@@H]3O (stereo not given in full) | 1
C=C(C)[C@H]1C(=O)c2c3c(cc4c5c(n1c24)[C@@]1(C)C(CC[C@H]2[C@](C)(C/C=C/C(C)=O)[C@@H](O)CC[C@@]21C)C5)C1=CC(C)(C)OC(C)(C)C1[C@@H]3O (stereo not given in full) | 10
C=C(C)[C@H]1C(=O)c2c3c(cc4c5c(n1c24)[C@@]1(C)C(CC[C@H]2[C@](C)(/C=C/C(=O)N4CCN(c6ccccn6)CC4)[C@@H](O)CC[C@@]21C)C5)C1=CC(C)(C)OC(C)(C)C1[C@@H]3O (stereo not given in full) | 1
C=C(C)[C@H]1C(=O)c2c3c(cc4c5c(n1c24)[C@@]1(C)C(CC[C@H]2[C@](C)(/C=C/CC(=O)NC(C)(C)C)[C@@H](O)CC[C@@]21C)C5)C1=CC(C)(C)OC(C)(C)C1[C@@H]3O (stereo not given in full) | 1
C=C(C)[C@H]1C(=O)c2c3c(cc4c5c(n1c24)[C@@]1(C)C(CC[C@H]2[C@](C)(/C=C/C=C(\C)C(=O)O)[C@@H](O)CC[C@@]21C)C5)C1=CC(C)(C)OC(C)(C)C1[C@@H]3O (stereo not given in full) | 1
C=C(C)[C@H]1C(=O)c2c3c(cc4c5c(n1c24)[C@@]1(C)C(CC[C@H]2[C@](C)(/C=C/CC(=O)Nc4ccccc4)[C@@H](O)CC[C@@]21C)C5)C1=CC(C)(C)OC(C)(C)C1[C@@H]3O (stereo not given in full) | 1
C=C(C)[C@H]1C(=O)c2c3c(cc4c5c(n1c24)[C@@]1(C)C(CC[C@H]2[C@](C)(/C=C/CC(=O)N(C)CCC)[C@@H](O)CC[C@@]21C)C5)C1=CC(C)(C)OC(C)(C)C1[C@@H]3O (stereo not given in full) | 1
